Measurements reported in paper PMC3169411, “Structure of aldose reductase from Giardia lamblia” (Acta Crystallographica Section F: Structural Biology and …, 2011).

Target: T1, G. lamblia aldose reductase (Giardia duodenalis, UniProt A8BGX6)
T1 construct: gene GL50803_007260; full-length; E. coli BL21(DE3); observed Ser0-Asp313; dimer
T1 sequence (A8BGX6 1-313): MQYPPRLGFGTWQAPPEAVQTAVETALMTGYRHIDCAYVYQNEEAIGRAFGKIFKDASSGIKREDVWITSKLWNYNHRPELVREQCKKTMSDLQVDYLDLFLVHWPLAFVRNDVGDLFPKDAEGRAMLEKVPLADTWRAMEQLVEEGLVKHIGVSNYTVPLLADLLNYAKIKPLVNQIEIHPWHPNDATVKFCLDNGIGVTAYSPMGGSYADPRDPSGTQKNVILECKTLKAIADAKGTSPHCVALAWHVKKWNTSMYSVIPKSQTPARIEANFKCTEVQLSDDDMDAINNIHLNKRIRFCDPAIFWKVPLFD
Test: X-ray crystallography, […] Å
Format: binding
Settings: co-purified (none added); crystals from 20% PEG 3350, 200 mM sodium formate, 100 mM Bis-Tris propane; cofactor site, Arg269 and His242

NC(=O)c1ccc[n+]([C@@H]2O[C@H](COP(=O)(O)OP(=O)(O)OC[C@H]3O[C@@H](n4cnc5c(N)ncnc54)[C@H](OP(=O)(O)O)[C@@H]3O)[C@@H](O)[C@H]2O)c1 [NADP^+]
X-ray crystallography, 1.75 Å: One NADP^+ molecule and one ethylene glycol molecule were modelled in each chain
